Measured values from patent US9000045B2, “CETP activity inhibitors” (Japan Tobacco Inc., priority 1997, dated 2015).

Target: T1, CETP (Homo sapiens, UniProt P11597)
T1 sequence (P11597 18-493): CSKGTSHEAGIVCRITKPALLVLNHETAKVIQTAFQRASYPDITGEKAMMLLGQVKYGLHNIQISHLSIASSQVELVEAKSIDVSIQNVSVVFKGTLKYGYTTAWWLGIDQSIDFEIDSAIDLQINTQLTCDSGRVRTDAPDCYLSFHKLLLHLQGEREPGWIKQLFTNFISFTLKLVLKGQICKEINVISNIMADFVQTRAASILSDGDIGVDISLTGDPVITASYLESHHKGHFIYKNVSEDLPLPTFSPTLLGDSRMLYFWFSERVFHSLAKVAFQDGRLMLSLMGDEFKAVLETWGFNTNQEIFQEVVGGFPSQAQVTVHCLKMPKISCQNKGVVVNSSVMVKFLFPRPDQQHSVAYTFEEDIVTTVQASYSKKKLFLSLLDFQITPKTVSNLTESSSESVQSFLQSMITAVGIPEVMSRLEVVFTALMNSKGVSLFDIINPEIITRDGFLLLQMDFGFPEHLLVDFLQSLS
Test: In vitro CETP activity inhibitory effect in whole plasma
Format: biochemical
Parameters: Plasma containing [^3H]CE-HDL3 (600,000 dpm/ml) was prepared by adding donor lipoprotein obtained in the above (1) to plasma from healthy subjects; from tissue; host or cells: whole plasma of healthy subjects
Details: plasma from healthy subjects containing [3H]CE-HDL3, incubated 4 hours at 37° C.; read-out: CETP activity inhibition in whole plasma IC50
Procedure: The fraction thus obtained was dialyzed against a PBS solution [10 mM Na2HPO4/10 mM NaH2PO4/0.15 M NaCl/1 mM EDTA (pH 7.4)]. Then, tritium-labeled cholesterol (10 nM) (50.3 Ci/mM) was dissolved in 95% ethanol and added gradually to the above HDL3 fraction under stirring. The solution was incubated for 18 hours at 37° C. […] After incubation, KBr was added and specific gravity was adjusted to d=1.21 g/ml. […] A sample solution was prepared using a 1:1 solution of N-methylpyrrolidone and polyethyleneglycol 400 as a solvent. […] Based on the inhibition rate (%) of CETP activity, IC50 value of each sample was calculated.

IC50 [µM]	SMILES
28	CC1(C(=O)Nc2ccccc2SC(=O)Cc2ccc(Cl)cc2)CCCCC1 [Example 25-21]
101	O=C(Nc1ccccc1SSc1ccccc1NC(=O)c1ccccc1)c1ccccc1 [Example 3]
74	CC(C)CCC1(C(=O)Nc2cc(Cl)c(Cl)cc2SC(=O)C(C)(C)C)CCCCCC1 [Example 72]
49	CC(C)CCC1(C(=O)Nc2ccccc2SC(=O)C2CCCCC2)CCCCC1 [Example 43]
18	CC(C)(C)C(=O)Sc1cc(Cl)c(Cl)cc1NC(=O)CC1CCCCC1 [Example 66-28]
4	CC(C)(C)C(=O)Sc1cc(Cl)c(Cl)cc1NC(=O)C1(CC2CCCCC2)CCCCC1 [Example 71]
7	CCC(=O)Sc1cc(Cl)c(Cl)cc1NC(=O)C1(CCC(C)C)CCCCC1 [Example 25-85]
6	CCNC(=O)Sc1ccccc1NC(=O)C1(CCC(C)C)CCCCC1 [Example 25-99]
9	CC(C)CCC1(C(=O)Nc2cc(Cl)c(Cl)cc2S)CCCC1 [Example 21]
18	CC(=O)NCC(=O)Sc1ccccc1NC(=O)C1(C)CCCCC1 [Example 25-33]
41	CC(C)(C)C(=O)Sc1cc(Cl)c(Cl)cc1NC(=O)c1ccncc1 [Example 66-21]
13	CC(C)(C)C(=O)Sc1cc(Cl)c(Cl)cc1NC(=O)[C@]12CCCC[C@@H]1CCC2 [Example 66-23]
25	CCCCC(=O)Nc1ccccc1SSc1ccccc1NC(=O)CCCC [Example 1-2]
2	CC(C)CCC1(C(=O)Nc2cc(Cl)c(Cl)cc2SC(=O)C(C)(C)C)CCCCC1 [Example 50]
22	CC1(C(=O)Nc2ccccc2SC(=O)[C@H](N)c2ccccc2)CCCCC1 [Example 25-42]
18	CC(C)(C)C(=O)Nc1ccccc1SC(=O)Sc1ccccc1NC(=O)C(C)(C)C [Example 25-94]
16	CC(C)CCC1(C(=O)Nc2cc(Cl)c(Cl)cc2S)CCCCC1 [Example 20]
32	CC(C)(C)C(=O)Nc1ccccc1SC(=O)C1CCCCC1 [Example 25-4]
9	CCNC(=O)Sc1cc(Cl)c(Cl)cc1NC(=O)C1(CCC(C)C)CCCCC1 [Example 25-104]
23	CC1(C(=O)Nc2ccccc2SC(=O)[C@H](NC(=O)c2ccccc2)c2ccccc2)CCCCC1 [Example 25-40]
21	CC(C)(C)OC(=O)Nc1ccccc1CC(=O)Sc1ccccc1NC(=O)C1(C)CCCCC1 [Example 25-34]
9	CC(C)(C)C(=O)Sc1cc(Cl)c(Cl)cc1NC(=O)[C@H]1CC[C@H](C(C)(C)C)CC1 [Example 66-27]
18	CC1(C(=O)Nc2ccccc2SC(=O)Sc2ccccc2NC(=O)C2(C)CCCCC2)CCCCC1 [Example 25-95]
4	CC(C)(C)C(=O)Sc1cc(Cl)c(Cl)cc1NC(=O)C1(CC2CC2)CCCCC1 [Example 70]

IC50 [µM]	SMILES
6	COC(=O)CCC(=O)Sc1cc(Cl)c(Cl)cc1NC(=O)C1(CCC(C)C)CCCCC1 [Example 25-79]
17	CC(C)CCC1(C(=O)Nc2cc(Cl)c(Cl)cc2SC(=O)C2CCCCC2)CCCCC1 [Example 25-82]
22	CC(=O)N[C@H](C(=O)Sc1ccccc1NC(=O)C1(C)CCCCC1)c1ccccc1 [Example 25-39]
5	CC(C)CCC1(C(=O)Nc2ccccc2S)CCCC1 [Example 13]
21	CC(=O)Nc1cccc(CC(=O)Sc2ccccc2NC(=O)C2(C)CCCCC2)c1 [Example 25-31]
19	CC(C)(C)C(=O)Sc1cc(Cl)c(Cl)cc1NC(=O)[C@H]1CC[C@H](C)CC1 [Example 66-30]
18	CC(C)CCC1(C(=O)Nc2cc(Cl)c(Cl)cc2SC(=O)Cc2ccccc2)CCCCC1 [Example 25-83]
17	CC1(C(=O)Nc2cc(Cl)c(Cl)cc2SC(=O)[C@@H](N)Cc2ccccc2)CCCCC1 [Example 66-12]
11	CC(C)(C)C(=O)Sc1cc(Cl)c(Cl)cc1NC(=O)C1(C2CCCCC2)CCCCC1 [Example 66-18]
21	CC1(C(=O)Nc2cccc(CC(=O)Sc3ccccc3NC(=O)C3(C)CCCCC3)c2)CCCCC1 [Example 25-30]
8	CCCC1(C(=O)Nc2ccccc2S)CCCCC1 [Example 16]
46	COC(=O)Sc1cc(Cl)c(Cl)cc1NC(=O)C1(C)CCCCC1 [Example 66-52]
8	CCCC1(C(=O)Nc2cc(Cl)c(Cl)cc2SC(=O)C(C)(C)C)CCCCC1 [Example 66-16]
12	COC(=O)Sc1ccccc1NC(=O)C1(CCC(C)C)CCCCC1 [Example 54]
6	CCCCCC1(C(=O)Nc2cc(Cl)c(Cl)cc2SC(=O)C(C)(C)C)CCCCC1 [Example 69]
22	CCCCC[C@H]1CC[C@H](C(=O)Nc2cc(Cl)c(Cl)cc2SC(=O)C(C)(C)C)CC1 [Example 66-34]
16	CC(C)CCC1(C(=O)Nc2cc(Cl)c(Cl)cc2SC(=O)C(C)(C)C)CCCC1 [Example 51]
30	CC(C)(C)C(=O)Nc1ccccc1SC(=O)CCc1ccccc1 [Example 25-14]
25	CC1(C(=O)Nc2ccccc2SC(=O)Cc2ccccc2Cl)CCCCC1 [Example 25-23]
19	CCSC(=O)Sc1ccc(C(F)(F)F)cc1NC(=O)C1(C)CCCCC1 [Example 25-92]
21	CC1(C(=O)Nc2ccccc2SC(=O)c2cccnc2)CCCCC1 [Example 25-27]
27	CC(=O)N[C@@H](CC(C)C)C(=O)Sc1ccccc1NC(=O)C1(C)CCCCC1 [Example 25-35]
35	CC1(C(=O)Nc2cc(C(F)(F)F)ccc2SC(=O)Cc2ccccc2)CCCCC1 [Example 25-66]
99	CC(C)(C)C(=O)Nc1ccccc1S [Example 9, N-(2-mercaptophenyl)-2,2-dimethylpropioneamide]

IC50 [µM]	SMILES
6	CC(C)CCC1(C(=O)Nc2cc(Cl)c(Cl)cc2SC(=O)c2cccnc2)CCCC1 [Example 25-87]
8	CC(C)CCC1(C(=O)Nc2ccccc2SC(=O)NC(C)C)CCCCC1 [Example 25-98]
7	CCCCC1(C(=O)Nc2cc(Cl)c(Cl)cc2SC(=O)C(C)(C)C)CCCCC1 [Example 66-29]
7	CC(C)CCC1(C(=O)Nc2cc(Cl)c(Cl)cc2SC(=O)c2cccnc2)CCCCC1 [Example 25-77]
42	CC(C)CC(C(=O)Nc1cc(Cl)c(Cl)cc1SC(=O)C(C)(C)C)C1CCCCC1 (stereo not shown) [Example 66-40]
45	CC(C)(C)C(=O)Sc1cc(Cl)c(Cl)cc1NC(=O)C1(CC2CCCCC2)CCCC1 [Example 66-51]
175	O=C(Nc1ccccc1SSc1ccccc1NC(=O)c1cccs1)c1cccs1 [Example 4]
24	O=C(Nc1ccccc1SSc1ccccc1NC(=O)c1ccncc1)c1ccncc1 [Example 1-7]
27	CC(C)(C)C(=O)Sc1cc(F)c(F)cc1NC(=O)C1(C)CCCCC1 [Example 25-72]
21	CC1(C(=O)Nc2ccccc2SC(=O)Cc2cccs2)CCCCC1 [Example 25-28]
23	CC(=O)N[C@@H](Cc1ccccc1)C(=O)Sc1cc(Cl)c(Cl)cc1NC(=O)C1(C)CCCCC1 [Example 66-10]
2	CC(C)CCC1(C(=O)Nc2ccccc2SSc2ccccc2NC(=O)C2(CCC(C)C)CCCC2)CCCC1 [Example 7]
25	CC(C)(C)C(=O)Nc1ccccc1SC(=O)Cc1cccc([N+](=O)[O-])c1 [Example 25-8]
8	CCCCC1(C(=O)Nc2ccccc2S)CCCCC1 [Example 17]
4	CC(C)CCC1(C(=O)Nc2ccccc2SC(=O)c2cccnc2)CCCCC1 [Example 35]
7	CC(C)C1(C(=O)Nc2cc(Cl)c(Cl)cc2SC(=O)C(C)(C)C)CCCCC1 [Example 66, S-[4,5-dichloro-2-(1-isopropylcyclohexanecarbonyl-amino)phenyl]2,2-dimethylthiopropionate]
8	CC1(C(=O)Nc2cc(C(F)(F)F)ccc2SC(=O)Sc2ccc(C(F)(F)F)cc2NC(=O)C2(C)CCCCC2)CCCCC1 [Example 25-96]
8	CC(C)CCC1(C(=O)Nc2ccccc2SC(=O)CCCCC(=O)O)CCCCC1 [Example 53]
6	CC(C)CC1(C(=O)Nc2ccccc2S)CCCCC1 [Example 18, N-(2-mercaptophenyl)-1-isobutylcyclohexanecarboxamide]
19	CCC[C@H]1CC[C@H](C(=O)Nc2cc(Cl)c(Cl)cc2SC(=O)C(C)(C)C)CC1 [Example 66-33]
179	COc1ccc(S)c(NC(=O)C2(C)CCCCC2)c1 [Example 19, N-(2-mercapto-5-methoxyphenyl)-1-methylcyclohexanecarboxamide]
20	CC(C)CCC1(C(=O)Nc2ccccc2SC(=O)C2CCCCC2)CCCC1 [Example 25-64]
